Experimental data reported in PMC9463489 (Journal of Pharmaceutical Analysis, 2022).
“And” between values parts separate entries of the source, which are not always exact repeats. Identical values can stand only once.

Assays:
[1] = biological target: T1, human pancreatic lipase (hPL) (Homo sapiens, UniProt P16233); test: fluorescence-based hPL inhibition assay; type: biochemical; details: 4-MUO 5 μM, 37 °C, 20 min; for IC50: pIC50, hPL-catalyzed 4-MUO hydrolysis; for pIC50: hPL-catalyzed 4-MUO hydrolysis
T1 sequence (P16233 17-465): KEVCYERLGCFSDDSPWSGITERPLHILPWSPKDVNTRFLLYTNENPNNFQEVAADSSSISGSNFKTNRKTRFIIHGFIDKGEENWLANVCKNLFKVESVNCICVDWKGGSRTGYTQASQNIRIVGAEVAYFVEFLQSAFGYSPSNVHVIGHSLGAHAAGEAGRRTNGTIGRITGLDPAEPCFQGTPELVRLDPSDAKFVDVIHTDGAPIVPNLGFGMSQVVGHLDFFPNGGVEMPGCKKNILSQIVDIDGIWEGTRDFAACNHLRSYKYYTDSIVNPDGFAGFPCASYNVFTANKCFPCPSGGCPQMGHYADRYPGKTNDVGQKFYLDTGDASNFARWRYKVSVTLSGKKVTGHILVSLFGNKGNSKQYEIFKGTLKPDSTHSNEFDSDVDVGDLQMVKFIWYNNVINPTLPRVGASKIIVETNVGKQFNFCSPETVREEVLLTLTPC

[2] = biological target: T1, human pancreatic lipase (hPL); test: inhibition kinetics against hPL-catalyzed 4-MUO hydrolysis; type: biochemical; details: for Inhibition mode: Lineweaver-Burk and secondary plots
α-glucosidase = details: ref [50], [51], [52]; cited from earlier work

Row | IC50 [1] [nM] | Compound | other results
1 | > 100000 | O=c1c(O[C@@H]2O[C@H](CO)[C@@H](O)[C@H](O)[C@H]2O)c(-c2ccc(O)c(O)c2)oc2cc(O)cc(O)c12 [Quercetin-3-O-glucoside, quercetin-3-O-glucoside] | 
2 | > 100000 | O=C1C[C@@H](c2ccc(O)c(O)c2)Oc2cc(O)cc(O)c21 [Eriodictyol, eriodictyol] | 
3 |  | O=C(O)[C@H]1O[C@@H](Oc2c(-c3ccc(O)c(O)c3)oc3cc(O)cc(O)c3c2=O)[C@H](O)[C@@H](O)[C@@H]1O [Quercetin-3-O-glucuronide, quercetin-3-O-glucuronide] | pIC50 [1]: <4
4 | 25.7 | O=C(OC[C@H]1O[C@@H](OC(=O)c2cc(O)c(O)c(O)c2)[C@H](OC(=O)c2cc(O)c(O)c(O)c2)[C@@H](OC(=O)c2cc(O)c(O)c(O)c2)[C@@H]1OC(=O)c1cc(O)c(O)c(O)c1)c1cc(O)c(O)c(O)c1 [PGG, 1,2,3,4,6-penta-O-galloyl-β-D-glucopyranose] | Inhibition mode [2]: non-competitive; Ki ([2]; inhibition constant (Ki)): 12 nM and < 100 nM
5 |  | catechin gallate [CG] | Inhibition mode [2]: non-competitive
6 | 162 | O=C(O[C@@H]1Cc2c(O)cc(O)cc2O[C@@H]1c1ccc(O)c(O)c1)c1cc(O)c(O)c(O)c1 [ECG, epicatechin gallate] | inhibitory effects against α-glucosidase (α-glucosidase): strong inhibitory effects
7 | 776 | O=c1cc(-c2ccc(O)c(O)c2)oc2cc(O)cc(O)c12 [Luteolin, luteolin] | inhibitory effects against α-glucosidase (α-glucosidase): strong inhibitory effects
8 | > 100000 | O=C(O)/C=C/c1ccc(O)cc1 [p-coumaric acid] | 
9 |  | COc1cc(/C=C/C(=O)O)ccc1O [Ferulic acid, ferulic acid] | pIC50 [1]: <4
10 |  | O=c1cc(-c2ccc(O)c(O)c2)oc2cc(O[C@@H]3O[C@H](CO)[C@@H](O)[C@H](O)[C@H]3O)cc(O)c12 [Luteolin-7-O-β-D-glucoside, luteolin-7-O-β-D-glucoside] | pIC50 [1]: <4
11 |  | O=c1c(O)c(-c2ccc(O)c(O)c2)oc2cc(O)cc(O)c12 [Quercetin, quercetin] | inhibitory effects against α-glucosidase (α-glucosidase): strong inhibitory effects
12 | > 100000 | Oc1cc(O)c2c(c1)O[C@H](c1ccc(O)c(O)c1)[C@H](O)C2 [Epicatechin, epicatechin] | 
13 | > 100000 | C[C@@H]1O[C@@H](Oc2c(-c3ccc(O)c(O)c3)oc3cc(O)cc(O)c3c2=O)[C@H](O)[C@H](O)[C@H]1O [Quercitrin, quercitrin] | 
14 | > 100000 | C[C@@H]1O[C@@H](Oc2cc(O)c3c(=O)c(O)c(-c4ccc(O)cc4)oc3c2O)[C@H](O)[C@H](O)[C@H]1O [Rhodionin, rhodionin] | 
15 | 27500 | O=c1c(O)c(-c2ccc(O)cc2)oc2cc(O)cc(O)c12 [Kaempferol, kaempferol] | 
